From ChEMBL document CHEMBL1158263, “A New Prenylated Flavone from Artocarpus champeden” (J Nat Prod, 1996)
Values after ≈ are worked out from the molar mass of the structure shown.

Experiment: Toxicity against Artemia salina
Format: organism-based
Settings: in vivo

CC(C)=CC1Oc2cc(O)c(O)cc2-c2oc3cc(O)cc(O)c3c(=O)c21 (stereo unspecified) [CYCLOCHAMPEDOL]
LC50: 15.1 µg/mL (≈ 41 µM)
